In patent US20080038809A1, “ISOLATED LECTIN POLYPEPTIDES CONSISTING OF TRUNCATED […] UDP-GalNAc:POLYPEPTIDE N- ACETYLGALACTOSAMINYLTRANSFERASES” (GLYCOZYM APS, priority 2002, published 2008):

Key:
GalNAc-T4 = GalNAc-T4 (Homo sapiens, UniProt Q8N4A0); settings: mM concentrations; cited from earlier work
[1] = test system: MUC1 in CHO1d1D/MUC1F-clone2 cells; assay: Cell surface expression of MUC1 by immunocytology of non-permeabilized cells (FIG. 11); type: cell-based, Chinese Hamster; settings: 1 mM, cells grown in GalNAc
Procedure: Immunocytology: Two different procedures were applied: i) For general screening purposes, cells grown in plates or flasks were trypsinized, washed in saline, and airdried on multiwell coverslides. Slides were fixed in ice-cold acetone and stained with monoclonal antibodies and FITC-conjugated rabbit anti-mouse Ig as previously described^50. ii) For analysis of cell surface expression, cells were seeded in 6 well plates and grown for 6 hours in Hams F12 medium with serum until approximately 30-50% subconfluent. […] Cells were washed once in PBS (phosphate buffered saline without Calcium and Magnesium) and subsequently fixed in 2 ml 3% paraformaldehyde at 25° C. for 20 min followed by three washes with PBS. Free aldehyde groups were quenched by incubating in 2 mL 50 mM Ammonium Chloride in PBS for 10 min, followed by three washes with PBS and three washes with 5 min incubations each with PBS containing 0.2% Fish Skin Gelatin (Sigma). Immunostaining of cells was performed by incubation with monoclonal antibodies for 40 min at 25° C., followed by three washes with PBS and three washes of 5 min each with PBS containing 0.2% Fish Skin Gelatin. […]
We therefore investigated the effect of treatment with GalNAcα-benzyl of CHO1d1D/MUC1F-clone2 cells grown in the presence of GalNAc. […] Initially we analyzed surface expression of MUC1 by immunocytology. […]

Sequence of GalNAc-T4 (Q8N4A0 whole entry): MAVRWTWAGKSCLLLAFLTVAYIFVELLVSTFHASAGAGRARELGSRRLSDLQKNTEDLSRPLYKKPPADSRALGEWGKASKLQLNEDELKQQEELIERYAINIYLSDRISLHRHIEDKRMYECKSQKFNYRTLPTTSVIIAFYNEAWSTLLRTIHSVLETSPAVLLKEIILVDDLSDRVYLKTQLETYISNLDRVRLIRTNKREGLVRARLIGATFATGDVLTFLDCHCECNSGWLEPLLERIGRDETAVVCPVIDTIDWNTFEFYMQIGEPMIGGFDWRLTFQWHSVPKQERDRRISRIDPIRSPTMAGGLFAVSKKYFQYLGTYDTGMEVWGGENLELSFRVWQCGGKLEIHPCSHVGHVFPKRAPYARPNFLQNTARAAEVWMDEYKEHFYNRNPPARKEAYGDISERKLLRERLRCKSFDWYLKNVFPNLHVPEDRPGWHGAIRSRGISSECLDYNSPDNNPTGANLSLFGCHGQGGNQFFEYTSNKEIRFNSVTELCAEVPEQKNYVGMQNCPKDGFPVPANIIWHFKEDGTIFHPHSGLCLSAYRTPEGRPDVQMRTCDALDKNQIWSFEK

SMILES: CC(=O)N[C@H]1[C@@H](OCc2ccccc2)O[C@H](CO)[C@H](O)[C@@H]1O [BzlαGalNAc, benzyl-N-acetyl-alpha-D-galactosaminide]
- inhibition of lectin mediated GalNAc-glycopeptide substrate specificity of GalNAc-T4 (GalNAc-T4): can inhibit
- cell surface expression of MUC1 [1]: strong inhibition
